Experimental data as given in ChEMBL document CHEMBL1201862, “PubChem BioAssay data set” (2004).
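Assay format: 96-well plates, 48-hour exposure. The concentration for 50% growth inhibition is given as GI50.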 The source made the active and inactive calls. No stated cut-off is given here; in the data, active = GI50 up to about 1.1 µM and inactive = higher.

Assays:
Experiment in all cases: DTP human tumour cell line panel, 48 h
NCI/ADR-RES = test system: NCI/ADR-RES
UACC-62 = test system: UACC-62
K562 = test system: K562
PC-3 = test system: PC-3
ACHN = test system: ACHN
HCT-116 = test system: HCT-116
SK-MEL-2 = test system: SK-MEL-2
MDA-MB-231 = test system: MDA-MB-231
BT-549 = test system: BT-549
SF-539 = test system: SF-539
HCC 2998 = test system: HCC 2998
IGROV-1 = test system: IGROV-1
OVCAR-5 = test system: OVCAR-5
SW-620 = test system: SW-620
NCI-H23 = test system: NCI-H23
RXF 393 = test system: RXF 393
Hs-578T = test system: Hs-578T

Measured: GI50

Cc1ccc(-c2c(C#N)c(S)n(NS(=O)(=O)c3ccc(C)cc3)c(=O)c2C#N)cc1
inactive: NCI/ADR-RES 32.8 µM | UACC-62 28.5 µM | K562 35.8 µM | PC-3 22.8 µM | ACHN 20.6 µM | HCT-116 27 µM | SK-MEL-2 23.3 µM | MDA-MB-231 29.6 µM | BT-549 16.6 µM | SF-539 20.3 µM | HCC 2998 5.19 µM | IGROV-1 16.7 µM | OVCAR-5 27.4 µM | SW-620 19.9 µM | NCI-H23 18.5 µM | RXF 393 23.5 µM

CS(=O)(=O)OCC1CCCCCCCCCCC12SCCCS2 (configuration not stated)
inactive: NCI/ADR-RES > 100 µM | UACC-62 > 100 µM | K562 > 100 µM | PC-3 > 100 µM | ACHN > 100 µM | HCT-116 > 100 µM | SK-MEL-2 > 100 µM | MDA-MB-231 > 100 µM | SF-539 > 100 µM | HCC 2998 > 100 µM | Hs-578T > 100 µM | IGROV-1 > 100 µM | OVCAR-5 > 100 µM | SW-620 > 100 µM | NCI-H23 > 100 µM | RXF 393 > 100 µM

CN(C)CCCNC(=O)N/N=C\c1cccc2ccccc12
inactive: NCI/ADR-RES > 10 µM | UACC-62 > 10 µM | K562 > 10 µM | PC-3 > 10 µM | ACHN > 10 µM | HCT-116 > 10 µM | MDA-MB-231 > 10 µM | SF-539 > 10 µM | HCC 2998 > 10 µM | Hs-578T > 10 µM | IGROV-1 > 10 µM | OVCAR-5 > 10 µM | SW-620 > 10 µM | RXF 393 > 10 µM

N#CC(c1nc2ccccc2s1)c1nc(Cl)ncc1Br (configuration not stated)
inactive: NCI/ADR-RES 30 µM | ACHN 28.2 µM | HCT-116 23 µM | MDA-MB-231 39.2 µM | BT-549 25.2 µM | SF-539 31.5 µM | IGROV-1 28.9 µM | OVCAR-5 > 100 µM | SW-620 42.6 µM | NCI-H23 23.6 µM | RXF 393 26.9 µM

Nn1c(S)nnc1C12CC3CC(CC(C3)C1)C2
inactive: NCI/ADR-RES > 100 µM | UACC-62 > 100 µM | K562 > 100 µM | PC-3 > 100 µM | ACHN > 100 µM | HCT-116 > 100 µM | SK-MEL-2 > 100 µM | MDA-MB-231 > 100 µM | SF-539 > 100 µM | HCC 2998 > 100 µM | Hs-578T > 100 µM | IGROV-1 > 100 µM | OVCAR-5 > 100 µM | SW-620 > 100 µM | NCI-H23 > 100 µM | RXF 393 > 100 µM

CC1CC(=O)Nc2ccccc2N1C(=O)C1CC1 (configuration not stated)
inactive: K562 > 100 µM | PC-3 > 100 µM | ACHN > 100 µM | HCT-116 > 100 µM | SK-MEL-2 > 100 µM | MDA-MB-231 > 100 µM | BT-549 > 100 µM | SF-539 > 100 µM | HCC 2998 > 100 µM | Hs-578T > 100 µM | IGROV-1 > 100 µM | OVCAR-5 > 100 µM | SW-620 > 100 µM | NCI-H23 > 100 µM | RXF 393 > 100 µM

Nc1n[nH]c(Nc2ccc(Cl)cc2)c1P(=O)(c1ccccc1)c1ccccc1
inactive: NCI/ADR-RES 20.7 µM | UACC-62 22.2 µM | K562 64.9 µM | PC-3 19.9 µM | ACHN 34.4 µM | SK-MEL-2 19.9 µM | MDA-MB-231 19.1 µM | SF-539 21.8 µM | HCC 2998 24.7 µM | Hs-578T 14.8 µM | IGROV-1 19.1 µM | OVCAR-5 18.8 µM | SW-620 34.3 µM | NCI-H23 30.4 µM | RXF 393 20.9 µM

O=C(Nc1ccccc1)N1CCN(C(=O)Nc2ccccc2)C1=S
inactive: NCI/ADR-RES 41.9 µM | K562 > 100 µM | ACHN 8.57 µM | HCT-116 47.6 µM | SK-MEL-2 > 100 µM | MDA-MB-231 > 100 µM | BT-549 30.4 µM | SF-539 18.5 µM | HCC 2998 > 100 µM | Hs-578T 35.9 µM | IGROV-1 49 µM | SW-620 > 100 µM | NCI-H23 22.3 µM | RXF 393 19.9 µM

CON(C)C(=O)C(C)N(Cc1ccccc1)Cc1ccccc1 (configuration not stated)
inactive: NCI/ADR-RES 45.5 µM | UACC-62 66.2 µM | K562 40.5 µM | PC-3 19.1 µM | ACHN 74.8 µM | HCT-116 50.2 µM | BT-549 45.6 µM | SF-539 > 100 µM | HCC 2998 > 100 µM | Hs-578T 50 µM | IGROV-1 88.5 µM | OVCAR-5 > 100 µM | SW-620 > 100 µM | NCI-H23 46.3 µM | RXF 393 > 100 µM
